ChEMBL document CHEMBL1201862, “PubChem BioAssay data set” (2004)
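Cells were grown in 96-well plates and exposed to each compound for 48 hours at five concentrations; endpoints were interpolated linearly between bracketing concentrations, or set to the highest concentration if not reached. GI50 = concentration required for 50% inhibition of growth.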 Active and inactive are the calls of the source. Rule as the data show it: active = GI50 up to about 1.1 µM and inactive = higher.

Columns and labels:
Test in all cases: NCI tumour cell line growth inhibition, 48 h
A549 = tested on: A549
NCI-H226 = tested on: NCI-H226
HCC 2998 = tested on: HCC 2998
RXF 393 = tested on: RXF 393
UACC-257 = tested on: UACC-257
MDA-MB-231 = tested on: MDA-MB-231
NCI-H460 = tested on: NCI-H460
CAKI-1 = tested on: CAKI-1
SR = tested on: SR
CCRF-CEM = tested on: CCRF-CEM
SF-268 = tested on: SF-268
M14 = tested on: M14
T47D = tested on: T47D
HCT-116 = tested on: HCT-116
MOLT-4 = tested on: MOLT-4
SW-620 = tested on: SW-620
786-0 = tested on: 786-0
SK-MEL-2 = tested on: SK-MEL-2
MDA-N = tested on: MDA-N
U-251 = tested on: U-251
NCI-H23 = tested on: NCI-H23
OVCAR-4 = tested on: OVCAR-4
MDA-MB-435 = tested on: MDA-MB-435
OVCAR-3 = tested on: OVCAR-3
Hs-578T = tested on: Hs-578T
SK-MEL-28 = tested on: SK-MEL-28
MCF7 = tested on: MCF7
UACC-62 = tested on: UACC-62
HOP-92 = tested on: HOP-92
SN12C = tested on: SN12C
OVCAR-8 = tested on: OVCAR-8
HT-29 = tested on: HT-29
NCI/ADR-RES = tested on: NCI/ADR-RES
SK-MEL-5 = tested on: SK-MEL-5
DU-145 = tested on: DU-145
COLO 205 = tested on: COLO 205
SF-295 = tested on: SF-295
UO-31 = tested on: UO-31
ACHN = tested on: ACHN
HL-60 = tested on: HL-60
PC-3 = tested on: PC-3
SNB-75 = tested on: SNB-75
SK-OV-3 = tested on: SK-OV-3
LOX IMVI = tested on: LOX IMVI
A498 = tested on: A498
KM12 = tested on: KM12
SF-539 = tested on: SF-539
K562 = tested on: K562
HCT-15 = tested on: HCT-15
SNB-19 = tested on: SNB-19
OVCAR-5 = tested on: OVCAR-5
RPMI-8226 = tested on: RPMI-8226
BT-549 = tested on: BT-549
IGROV-1 = tested on: IGROV-1
HOP-62 = tested on: HOP-62
TK-10 = tested on: TK-10
NCI-H522 = tested on: NCI-H522
EKVX = tested on: EKVX

SMILES: C=C1NC(=O)C(CC(C(=O)C(=O)Nc2c(C)cccc2C(C)(C)C)C(=O)c2ccc3ccccc3c2)C(=O)N1 (stereo not given)
- GI50 (A549): > 100 µM (inactive)
- GI50 (NCI-H226): > 100 µM (inactive)
- GI50 (HCC 2998): > 100 µM (inactive)
- GI50 (RXF 393): > 100 µM (inactive)
- GI50 (UACC-257): > 100 µM (inactive)
- GI50 (MDA-MB-231): > 100 µM (inactive)
- GI50 (NCI-H460): > 100 µM (inactive)
- GI50 (CAKI-1): > 100 µM (inactive)
- GI50 (SR): > 100 µM (inactive)
- GI50 (CCRF-CEM): > 100 µM (inactive)
- GI50 (SF-268): > 100 µM (inactive)
- GI50 (M14): > 100 µM (inactive)
- GI50 (T47D): > 100 µM (inactive)
- GI50 (HCT-116): > 100 µM (inactive)
- GI50 (MOLT-4): > 100 µM (inactive)
- GI50 (SW-620): > 100 µM (inactive)
- GI50 (786-0): > 100 µM (inactive)
- GI50 (SK-MEL-2): > 100 µM (inactive)
- GI50 (MDA-N): > 100 µM (inactive)
- GI50 (U-251): > 100 µM (inactive)
- GI50 (NCI-H23): > 100 µM (inactive)
- GI50 (OVCAR-4): > 100 µM (inactive)
- GI50 (MDA-MB-435): > 100 µM (inactive)
- GI50 (OVCAR-3): > 100 µM (inactive)
- GI50 (Hs-578T): > 100 µM (inactive)
- GI50 (SK-MEL-28): > 100 µM (inactive)
- GI50 (MCF7): > 100 µM (inactive)
- GI50 (UACC-62): > 100 µM (inactive)
- GI50 (HOP-92): > 100 µM (inactive)
- GI50 (SN12C): > 100 µM (inactive)
- GI50 (OVCAR-8): > 100 µM (inactive)
- GI50 (HT-29): > 100 µM (inactive)
- GI50 (NCI/ADR-RES): > 100 µM (inactive)
- GI50 (SK-MEL-5): > 100 µM (inactive)
- GI50 (DU-145): > 100 µM (inactive)
- GI50 (COLO 205): > 100 µM (inactive)
- GI50 (SF-295): > 100 µM (inactive)
- GI50 (UO-31): > 100 µM (inactive)
- GI50 (ACHN): > 100 µM (inactive)
- GI50 (HL-60): > 100 µM (inactive)
- GI50 (PC-3): > 100 µM (inactive)
- GI50 (SNB-75): > 100 µM (inactive)
- GI50 (SK-OV-3): > 100 µM (inactive)
- GI50 (LOX IMVI): > 100 µM (inactive)
- GI50 (A498): > 100 µM (inactive)
- GI50 (KM12): > 100 µM (inactive)
- GI50 (SF-539): > 100 µM (inactive)
- GI50 (K562): > 100 µM (inactive)
- GI50 (HCT-15): > 100 µM
- GI50 (SNB-19): > 100 µM (inactive)
- GI50 (OVCAR-5): > 100 µM (inactive)
- GI50 (RPMI-8226): > 100 µM (inactive)
- GI50 (BT-549): > 100 µM (inactive)

SMILES: CC/C=C\C/C=C\C/C=C\CCCCCCCC(=O)OC(COC(=O)CCCCCCCCCCCCCCCCC)COC1OC(CO)C(O)C(O)C1O (stereo not given)
- GI50 (A549): > 25 µM (inactive)
- GI50 (NCI-H226): > 25 µM (inactive)
- GI50 (HCC 2998): > 25 µM (inactive)
- GI50 (RXF 393): > 25 µM (inactive)
- GI50 (UACC-257): > 25 µM (inactive)
- GI50 (MDA-MB-231): > 25 µM (inactive)
- GI50 (IGROV-1): 12.3 µM (inactive)
- GI50 (NCI-H460): > 25 µM (inactive)
- GI50 (CAKI-1): > 25 µM (inactive)
- GI50 (SR): > 25 µM (inactive)
- GI50 (CCRF-CEM): > 25 µM (inactive)
- GI50 (SF-268): > 25 µM (inactive)
- GI50 (M14): > 25 µM (inactive)
- GI50 (T47D): > 25 µM (inactive)
- GI50 (HCT-116): > 25 µM (inactive)
- GI50 (MOLT-4): > 25 µM (inactive)
- GI50 (SW-620): > 25 µM (inactive)
- GI50 (786-0): > 25 µM (inactive)
- GI50 (SK-MEL-2): > 25 µM (inactive)
- GI50 (MDA-N): > 25 µM (inactive)
- GI50 (U-251): > 25 µM (inactive)
- GI50 (NCI-H23): > 25 µM (inactive)
- GI50 (OVCAR-4): > 25 µM (inactive)
- GI50 (MDA-MB-435): > 25 µM (inactive)
- GI50 (OVCAR-3): 7.74 µM (inactive)
- GI50 (Hs-578T): 2.59 µM (inactive)
- GI50 (HOP-62): > 25 µM (inactive)
- GI50 (SK-MEL-28): > 25 µM (inactive)
- GI50 (MCF7): > 25 µM (inactive)
- GI50 (UACC-62): > 25 µM (inactive)
- GI50 (HOP-92): > 25 µM (inactive)
- GI50 (SN12C): > 25 µM (inactive)
- GI50 (OVCAR-8): 15.9 µM (inactive)
- GI50 (HT-29): 22.8 µM (inactive)
- GI50 (NCI/ADR-RES): 23.6 µM (inactive)
- GI50 (SK-MEL-5): > 25 µM (inactive)
- GI50 (DU-145): > 25 µM (inactive)
- GI50 (COLO 205): > 25 µM (inactive)
- GI50 (SF-295): > 25 µM (inactive)
- GI50 (TK-10): > 25 µM (inactive)
- GI50 (UO-31): > 25 µM (inactive)
- GI50 (ACHN): > 25 µM (inactive)
- GI50 (NCI-H522): 9.53 µM (inactive)
- GI50 (HL-60): > 25 µM (inactive)
- GI50 (PC-3): 22.8 µM (inactive)
- GI50 (SNB-75): > 25 µM (inactive)
- GI50 (SK-OV-3): > 25 µM (inactive)
- GI50 (LOX IMVI): > 25 µM (inactive)
- GI50 (A498): > 25 µM (inactive)
- GI50 (KM12): > 25 µM (inactive)
- GI50 (K562): 18.6 µM (inactive)
- GI50 (EKVX): 4.7 µM (inactive)
- GI50 (HCT-15): > 25 µM
- GI50 (SNB-19): > 25 µM (inactive)
- GI50 (OVCAR-5): > 25 µM (inactive)
- GI50 (RPMI-8226): 8.57 µM (inactive)
- GI50 (BT-549): > 25 µM (inactive)
